Test results reported in patent publication EP4389751A1, “HETEROCYCLIC COMPOUNDS AND USES THEREOF” (Kumquat Biosciences Inc., priority 2021, dated 2024).
Like-named read-outs stand apart in the source and are kept apart here.

What was measured:
K-Ras G12S = molecular target: T1, K-Ras G12S (Homo sapiens, UniProt P01116, G12S); assay: HTRF assay of the K-Ras / SOS1 interaction; format: biochemical; conditions: IC50 (against K-Ras G12D) to IC50 (against K-Ras G12S)
T1 construct: made in house; host or cells: E. coli (e.g., BL21 (DE3))
Method in brief: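 Compounds (duplicates, 10 µM to 0.01 µM) were incubated ≥~10 min with Eu-labelled GST-K-Ras G12S and XL665-labelled His-hSOS1 in HEPES pH 7.4 buffer containing NaCl, DTT, BSA and Igepal. Disruption measured as HTRF emission ratio 665/620 nm, fitted to IC50.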

[1] = molecular target: T2, KRAS protein (His-tagged GDP-loaded G12S 1-169) (Homo sapiens, UniProt P01116, G12S); assay: Covalent modification of KRAS protein, intact-protein LC-MS; format: binding; conditions: 24hrs at room temperature, KRAS protein ~2 µM
T2 construct: His-tagged GDP-loaded G12S 1-169
Method in brief: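 Percent covalent modification derives from deconvoluted intact-mass intensities of compound-adducted versus unmodified KRAS, measured by LC-ESI-MS. Before analysis, ~2 µM GDP-loaded His-KRAS 1-169 was exposed to compound for 24 h at room temperature and acidified with formic acid.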

GP2D cells = assay: Cell proliferation assay (CellTiter-Glo), K-Ras G12D cells; format: cell-based; conditions: read-out: Inhibition of GP2D Cells (IC50)
Method in brief: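 CellTiter-Glo luminescence, taken roughly 5 days after dosing, measured growth of G12D-mutant GP2D cells in DMEM/2 mM glutamine/10% FBS. Compound dilution series (e.g., 9 points, 3-fold) added the day after plating. Four-parameter fitting gave IC50.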

SMILES	Ratio of IC50 KRAS G12D vs. IC50 KRAS G12S (K-Ras G12S)	% G12S Modification at 24 hr. [1]	IC50 (GP2D cells; GP2D cells (K-Ras G12D))	IC50 (GP2D cells; GP2d)
N#Cc1nccn1C(=O)N1CCN(c2nc(OC[C@@]34CCCN3C[C@H](F)C4)nc3c(F)c(-c4ccc(F)c5sc(N)nc45)c(Cl)cc23)CC(F)(F)C1 [Compound A204, 1-(4-(7-(2-amino-7-fluorobenzo[d]thiazol-4-yl)-6-chloro-8-fluoro-2-(((2R,7aS)-2-fluorotetrahydro-1H-pyrrolizin-7a(5H)-yl)methoxy)quinazolin-4-yl)-6,6-difluoro-1,4-diazepane-1 - carbonyl)-1H-imidazole-2-carbonitrile]	A (A: indicates that the ratio of IC50 against KrasG12D vs. IC50 against KrasG12S is 1-fold or greater)	++ (++ indicates between about 1%- 20% labelling)	1 to 10 µM	–
Nc1nc2c(-c3c(Cl)cc4c(N[C@H]5C[C@H]6CC[C@@H](C5)N6C(=O)n5cncn5)nc(OC[C@@]56CCCN5C[C@H](F)C6)nc4c3F)ccc(F)c2s1 [Compound A207, ((1R,3r,5S)-3-((7-(2-amino-7-fluorobenzo[d]thiazol-4-yl)-6-chloro-8-fluoro-2-(((2R,7aS)-2-fluorotetrahydro-1H-pyrrolizin-7a(5H)-yl)methoxy)quinazolin-4-yl)amino)-8-azabicyclo[3.2.1]octan-8-yl)(1H-1,2,4-triazol-1-yl)methanone]	A (A: indicates that the ratio of IC50 against KrasG12D vs. IC50 against KrasG12S is 1-fold or greater)	+++ (+++ indicates greater than 20% labelling)	–	1 to 10 µM
Nc1nc2c(-c3c(Cl)cc4c(N5CCC56CCCN(C(=O)n5cncn5)CC6)nc(OC[C@@]56CCCN5C[C@H](F)C6)nc4c3F)ccc(F)c2s1 (stereo partly drawn) [Compound A209, (1-(7-(2-amino-7-fluorobenzo[d]thiazol-4-yl)-6-chloro-8-fluoro-2-(((2R,7aS)-2-fluorotetrahydro-1H-pyrrolizin-7a(5H)-yl)methoxy)quinazolin-4-yl)-1,7-diazaspiro[3.6]decan-7-yl)(1H-1,2,4-triazol-1-yl)methanone]	A (A: indicates that the ratio of IC50 against KrasG12D vs. IC50 against KrasG12S is 1-fold or greater)	++ (++ indicates between about 1%- 20% labelling)	1 to 10 µM	–
Nc1nc2c(-c3c(Cl)cc4c(N5CCOC6(CCN(C(=O)n7cncn7)C6)C5)nc(OC[C@@]56CCCN5C[C@H](F)C6)nc4c3F)ccc(F)c2s1 (stereo partly drawn) [Compound A221, (9-(7-(2-amino-7-fluorobenzo[d]thiazol-4-yl)-6-chloro-8-fluoro-2-(((2R,7aS)-2-fluorotetrahydro-1H-pyrrolizin-7a(5H)-yl)methoxy)quinazolin-4-yl)-6-oxa-2,9-diazaspiro[4.5]decan-2-yl)(1H-1,2,4-triazol-1-yl)methanone]	A (A: indicates that the ratio of IC50 against KrasG12D vs. IC50 against KrasG12S is 1-fold or greater)	++ (++ indicates between about 1%- 20% labelling)	1 to 10 µM	–
N#Cc1c(N)sc2c(F)ccc(-c3c(Cl)cc4c(N5CC6OCCN(C(=O)n7cncn7)C6C5)nc(OC[C@@]56CCCN5C[C@H](F)C6)nc4c3F)c12 (stereo partly drawn) [Compound A227, 4-(4-(4-(1H-1,2,4-triazole-1-carbonyl)hexahydropyrrolo[3,4-b][1,4]oxazin-6(2H)-yl)-6-chloro-8-fluoro-2-(((2R,7aS)-2-fluorotetrahydro-1H-pyrrolizin-7a(5H)-yl)methoxy)quinazolin-7-yl)-2-amino-7-fluorobenzo[b]thiophene-3-carbonitrile]	A (A: indicates that the ratio of IC50 against KrasG12D vs. IC50 against KrasG12S is 1-fold or greater)	+++ (+++ indicates greater than 20% labelling)	1 to 10 µM	–
Nc1nc2c(-c3c(Cl)cc4c(N5CC6(CCCN(C(=O)n7cncn7)C6)C5)nc(OC[C@@]56CCCN5C[C@H](F)C6)nc4c3F)ccc(F)c2s1 [Compound A230, (2-(7-(2-amino-7-fluorobenzo[d]thiazol-4-yl)-6-chloro-8-fluoro-2-(((2R,7aS)-2-fluorotetrahydro-1H-pyrrolizin-7a(5H)-yl)methoxy)quinazolin-4-yl)-2,6-diazaspiro[3.5]nonan-6-yl)(1H-1,2,4-triazol-1-yl)methanone]	A (A: indicates that the ratio of IC50 against KrasG12D vs. IC50 against KrasG12S is 1-fold or greater)	+++ (+++ indicates greater than 20% labelling)	1 to 10 µM	–
Nc1nc2c(-c3c(Cl)cc4c(N5CCOC6(CCN(C(=O)n7cncn7)CC6)C5)nc(OCC56CCCN5C[C@H](F)C6)nc4c3F)ccc(F)c2s1 (stereo partly drawn) [Compound A243, (4-(7-(2-amino-7-fluorobenzo[d]thiazol-4-yl)-6-chloro-8-fluoro-2-(((2R)-2-fluorotetrahydro-1H-pyrrolizin-7a(5H)-yl)methoxy)quinazolin-4-yl)-1-oxa-4,9-diazaspiro [5.5]undecan-9-yl)(1H-1,2,4-triazol-1-yl)methanone]	A (A: indicates that the ratio of IC50 against KrasG12D vs. IC50 against KrasG12S is 1-fold or greater)	+++ (+++ indicates greater than 20% labelling)	1 to 10 µM	–
N#Cc1cnn(C(=O)N2CCN(c3nc(OC[C@@]45CCCN4C[C@H](F)C5)nc4c(F)c(-c5ccc(F)c6sc(N)nc56)c(Cl)cc34)CC2)c1 [Compound A252, 1-(4-(7-(2-amino-7-fluorobenzo[d]thiazol-4-yl)-6-chloro-8-fluoro-2-(((2R,7aS)-2-fluorotetrahydro-1H-pyrrolizin-7a(5H)-yl)methoxy)quinazolin-4-yl)piperazine-1-carbonyl)-1H-pyrazole-4-carbonitrile]	A (A: indicates that the ratio of IC50 against KrasG12D vs. IC50 against KrasG12S is 1-fold or greater)	+++ (+++ indicates greater than 20% labelling)	1 to 10 µM	–
N#Cc1c(N)sc2c(F)ccc(-c3c(Cl)cc4c(N5CC6(CCCN(C(=O)n7cncn7)C6)C5)nc(OC[C@@]56CCCN5C[C@H](F)C6)nc4c3F)c12 [Compound A266, 4-(4-(6-(1H-1,2,4-triazole-1-carbonyl)-2,6-diazaspiro[3.5]nonan-2-yl)-6-chloro-8-fluoro-2-(((2R,7aS)-2-fluorotetrahydro-1H-pyrrolizin-7a(5H)-yl)methoxy)quinazolm-7-yl)-2-amino-7-fluorobenzo[b]thiophene-3-carbonitrile]	A (A: indicates that the ratio of IC50 against KrasG12D vs. IC50 against KrasG12S is 1-fold or greater)	+++ (+++ indicates greater than 20% labelling)	1 to 10 µM	–
Nc1nc2c(-c3c(Cl)cc4c(N5CC6(CN(C(=O)n7cncn7)CCO6)C5)nc(OC[C@@]56CCCN5C[C@H](F)C6)nc4c3F)ccc(F)c2s1 [Compound A268, (2-(7-(2-amino-7-fluorobenzo[d]thiazol-4-yl)-6-chloro-8-fluoro-2-(((2R,7aS)-2-fluorotetrahydro-1H-pyrrolizin-7a(5H)-yl)methoxy)quinazolin-4-yl)-5-oxa-2,8-diazaspiro[3.5]nonan-8-yl)(1H-1,2,4-triazol-1-yl)methanone]	A (A: indicates that the ratio of IC50 against KrasG12D vs. IC50 against KrasG12S is 1-fold or greater)	+++ (+++ indicates greater than 20% labelling)	1 to 10 µM	–
N#Cc1c(N)sc2c(F)ccc(-c3c(Cl)cc4c(N5CCCC6(CCN(C(=O)n7cncn7)C6)C5)nc(OC[C@@]56CCCN5C[C@H](F)C6)nc4c3F)c12 (stereo partly drawn) [Compound A269, 4-(4-(2-(1H-1,2,4-triazole-1-carbonyl)-2,7-diazaspiro[4.5]decan-7-yl)-6-chloro-8-fluoro-2-(((2R,7aS)-2-fluorotetrahydro-1H-pyrrolizin-7a(5H)-yl)methoxy)quinazolin-7-yl)-2-amino-7-fluorobenzo[b]thiophene-3-carbonitrile]	A (A: indicates that the ratio of IC50 against KrasG12D vs. IC50 against KrasG12S is 1-fold or greater)	++ (++ indicates between about 1%- 20% labelling)	1 to 10 µM	–
Nc1nc2c(-c3c(Cl)cc4c(N5CCOC6(CN(C(=O)n7cncn7)C6)C5)nc(OC[C@@]56CCCN5C[C@H](F)C6)nc4c3F)ccc(F)c2s1 [Compound A273, (8-(7-(2-amino-7-fluorobenzo[d]thiazol-4-yl)-6-chloro-8-fluoro-2-(((2R,7aS)-2-fluorotetrahydro-1H-pyrrolizin-7a(5H)-yl)methoxy)quinazolin-4-yl)-5-oxa-2,8-diazaspiro[3.5]nonan-2-yl)(1H-1,2,4-triazol-1-yl)methanone]	A (A: indicates that the ratio of IC50 against KrasG12D vs. IC50 against KrasG12S is 1-fold or greater)	+++ (+++ indicates greater than 20% labelling)	1 to 10 µM	–
